Like-named read-outs stand apart in the source and are kept apart here.
Tests used:
Assay in all cases: biochemical
Set-up in all cases: Eurofins KinaseProfiler full panel at Km ATP, residual kinase activity (%) relative to DMSO
PKCδ(h) = biological target: T1, PKCδ(h) (Homo sapiens, UniProt Q05655)
T1 construct: gene PRKCD
Procedure, shortened: (§1)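 Radiometric kinase activity assays were run with ATP at Km and compounds at 10 µM, and remaining activity (%) was reported. A separate competitive binding screen measured DNA-tagged kinase displaced from immobilized active-site ligands by qPCR, giving percent kinase still bound at 10 µM compound in DMSO.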

PKBα(h) = biological target: T2, PKBα(h) (Homo sapiens, UniProt P31749)
T2 construct: gene AKT1
Procedure, shortened: as §1

NEK3(h) = biological target: T3, NEK3(h) (Homo sapiens, UniProt P51956)
T3 sequence (P51956 1-506): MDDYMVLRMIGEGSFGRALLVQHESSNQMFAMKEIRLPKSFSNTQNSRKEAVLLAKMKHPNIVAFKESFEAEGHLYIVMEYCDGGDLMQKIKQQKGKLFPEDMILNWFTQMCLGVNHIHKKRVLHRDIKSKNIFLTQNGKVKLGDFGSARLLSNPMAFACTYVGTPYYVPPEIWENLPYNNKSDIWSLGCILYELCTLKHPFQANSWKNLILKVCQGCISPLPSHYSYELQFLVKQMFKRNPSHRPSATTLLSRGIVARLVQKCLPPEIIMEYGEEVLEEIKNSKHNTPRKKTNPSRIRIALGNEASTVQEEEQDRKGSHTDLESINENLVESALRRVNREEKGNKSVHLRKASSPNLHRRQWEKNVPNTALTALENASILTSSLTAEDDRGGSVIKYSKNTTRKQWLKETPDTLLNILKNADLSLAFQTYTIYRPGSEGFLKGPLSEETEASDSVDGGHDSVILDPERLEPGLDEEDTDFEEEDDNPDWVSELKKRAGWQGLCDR
Procedure, shortened: as §1

CaMKIIβ(h) = biological target: T4, CaMKIIβ(h) (Homo sapiens, UniProt Q13554)
T4 construct: gene CAMK2B
T4 sequence (Q13554 whole entry): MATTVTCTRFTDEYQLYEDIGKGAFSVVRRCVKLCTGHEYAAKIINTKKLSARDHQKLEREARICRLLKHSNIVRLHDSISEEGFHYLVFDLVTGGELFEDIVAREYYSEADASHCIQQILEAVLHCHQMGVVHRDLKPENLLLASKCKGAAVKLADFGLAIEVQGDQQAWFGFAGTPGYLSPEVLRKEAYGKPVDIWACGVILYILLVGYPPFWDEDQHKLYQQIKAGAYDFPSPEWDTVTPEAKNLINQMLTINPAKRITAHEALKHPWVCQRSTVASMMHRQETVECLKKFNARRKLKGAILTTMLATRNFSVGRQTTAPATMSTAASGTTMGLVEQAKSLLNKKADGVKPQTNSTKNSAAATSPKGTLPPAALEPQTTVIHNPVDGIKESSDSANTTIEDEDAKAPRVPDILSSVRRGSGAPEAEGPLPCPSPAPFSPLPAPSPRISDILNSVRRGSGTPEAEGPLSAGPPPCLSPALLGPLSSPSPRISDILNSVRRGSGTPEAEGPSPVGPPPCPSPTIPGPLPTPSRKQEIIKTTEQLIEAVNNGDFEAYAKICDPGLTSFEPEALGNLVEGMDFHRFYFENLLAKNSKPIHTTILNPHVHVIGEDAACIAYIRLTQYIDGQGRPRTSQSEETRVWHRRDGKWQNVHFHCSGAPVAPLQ
Procedure, shortened: as §1

TGFBR1(h) = biological target: T5, TGFBR1(h) (Homo sapiens, UniProt P36897)
T5 sequence (P36897 1-503): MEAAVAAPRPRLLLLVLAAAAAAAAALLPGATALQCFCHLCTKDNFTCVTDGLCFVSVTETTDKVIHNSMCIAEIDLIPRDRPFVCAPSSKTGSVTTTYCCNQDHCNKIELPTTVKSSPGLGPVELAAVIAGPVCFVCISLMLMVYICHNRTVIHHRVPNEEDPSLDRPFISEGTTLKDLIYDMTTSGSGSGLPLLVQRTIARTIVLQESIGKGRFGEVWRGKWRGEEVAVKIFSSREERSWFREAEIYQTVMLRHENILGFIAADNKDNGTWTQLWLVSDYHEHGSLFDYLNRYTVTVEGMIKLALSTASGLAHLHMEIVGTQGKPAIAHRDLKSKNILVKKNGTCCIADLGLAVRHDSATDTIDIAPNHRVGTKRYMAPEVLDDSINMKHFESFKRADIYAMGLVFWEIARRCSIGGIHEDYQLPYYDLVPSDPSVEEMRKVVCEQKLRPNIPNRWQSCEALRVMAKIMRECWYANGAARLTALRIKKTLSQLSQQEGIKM
Procedure, shortened: as §1

CaMKIγ(h) = biological target: T6, CaMKIγ(h) (Homo sapiens, UniProt Q96NX5)
T6 construct: gene CAMK1G
T6 sequence (Q96NX5 whole entry): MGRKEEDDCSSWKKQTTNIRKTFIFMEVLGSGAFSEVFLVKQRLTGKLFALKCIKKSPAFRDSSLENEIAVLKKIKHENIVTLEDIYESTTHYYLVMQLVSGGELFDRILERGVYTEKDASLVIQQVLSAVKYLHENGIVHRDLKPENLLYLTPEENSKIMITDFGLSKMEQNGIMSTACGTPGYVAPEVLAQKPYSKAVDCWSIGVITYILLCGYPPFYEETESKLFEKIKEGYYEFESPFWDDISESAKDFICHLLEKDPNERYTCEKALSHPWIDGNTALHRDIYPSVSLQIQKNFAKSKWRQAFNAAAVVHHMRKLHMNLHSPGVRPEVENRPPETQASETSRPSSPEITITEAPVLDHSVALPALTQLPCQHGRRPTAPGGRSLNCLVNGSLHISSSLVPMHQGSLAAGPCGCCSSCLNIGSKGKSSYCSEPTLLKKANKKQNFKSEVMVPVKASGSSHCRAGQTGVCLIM
Procedure, shortened: as §1

CK1δ(h) = biological target: T7, CK1δ(h) (Homo sapiens, UniProt P48730)
T7 construct: gene CSNK1D
Procedure, shortened: as §1

MSK2(h) = biological target: T8, MSK2(h) (Homo sapiens, UniProt O75676)
T8 construct: gene RPS6KA4
T8 sequence (O75676 whole entry): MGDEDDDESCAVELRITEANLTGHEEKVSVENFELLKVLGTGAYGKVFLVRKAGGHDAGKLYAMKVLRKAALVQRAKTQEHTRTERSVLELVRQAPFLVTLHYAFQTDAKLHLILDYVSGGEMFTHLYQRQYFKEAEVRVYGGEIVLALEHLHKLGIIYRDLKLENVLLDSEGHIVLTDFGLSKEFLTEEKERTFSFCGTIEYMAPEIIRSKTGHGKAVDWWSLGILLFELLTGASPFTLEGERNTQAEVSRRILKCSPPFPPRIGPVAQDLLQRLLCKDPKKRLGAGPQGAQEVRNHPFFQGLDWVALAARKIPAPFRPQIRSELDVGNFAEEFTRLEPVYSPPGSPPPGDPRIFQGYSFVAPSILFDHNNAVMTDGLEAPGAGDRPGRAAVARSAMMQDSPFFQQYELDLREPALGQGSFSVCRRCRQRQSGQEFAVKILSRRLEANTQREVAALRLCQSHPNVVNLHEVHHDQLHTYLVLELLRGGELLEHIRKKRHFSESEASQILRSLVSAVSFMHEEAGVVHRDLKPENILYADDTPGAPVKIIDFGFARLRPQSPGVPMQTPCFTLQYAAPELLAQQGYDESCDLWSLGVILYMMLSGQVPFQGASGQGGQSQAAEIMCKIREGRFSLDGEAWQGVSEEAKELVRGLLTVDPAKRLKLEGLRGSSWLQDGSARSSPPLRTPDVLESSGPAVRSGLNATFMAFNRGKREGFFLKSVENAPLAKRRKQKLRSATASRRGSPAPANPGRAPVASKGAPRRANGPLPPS
Procedure, shortened: as §1

LIMK1(h) = LIMK1(h) (Homo sapiens, UniProt P53667)
Procedure, shortened: as §1

IRAK1(h) = IRAK1(h) (Homo sapiens, UniProt P51617)
Sequence of IRAK1(h) (P51617 whole entry): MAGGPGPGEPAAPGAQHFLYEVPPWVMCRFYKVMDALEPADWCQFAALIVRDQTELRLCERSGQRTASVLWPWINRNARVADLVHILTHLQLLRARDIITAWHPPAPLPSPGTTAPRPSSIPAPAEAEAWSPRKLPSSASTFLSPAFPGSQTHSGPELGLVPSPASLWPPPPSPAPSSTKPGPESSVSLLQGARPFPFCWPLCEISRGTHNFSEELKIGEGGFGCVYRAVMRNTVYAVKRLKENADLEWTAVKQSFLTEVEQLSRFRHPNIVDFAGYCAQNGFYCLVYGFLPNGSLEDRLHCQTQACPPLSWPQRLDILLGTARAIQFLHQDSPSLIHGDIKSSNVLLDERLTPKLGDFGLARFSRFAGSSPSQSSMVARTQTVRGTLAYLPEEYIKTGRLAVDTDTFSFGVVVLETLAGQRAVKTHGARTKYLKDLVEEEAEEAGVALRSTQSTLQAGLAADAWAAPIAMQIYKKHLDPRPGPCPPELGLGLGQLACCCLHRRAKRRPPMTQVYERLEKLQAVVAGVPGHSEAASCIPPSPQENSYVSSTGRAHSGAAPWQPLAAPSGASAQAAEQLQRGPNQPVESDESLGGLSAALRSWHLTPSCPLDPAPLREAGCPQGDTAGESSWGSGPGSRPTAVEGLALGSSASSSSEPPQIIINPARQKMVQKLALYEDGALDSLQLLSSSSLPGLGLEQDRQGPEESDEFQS
Procedure, shortened: as §1

MRCKγ(h) = biological target: T9, MRCKγ(h) (Homo sapiens, UniProt Q6DT37)
T9 construct: gene CDC42BPG
Procedure, shortened: as §1

PRP4(h) = biological target: T10, PRP4(h) (Homo sapiens, UniProt Q13523)
T10 construct: gene PRP4K
T10 sequence (Q13523 whole entry): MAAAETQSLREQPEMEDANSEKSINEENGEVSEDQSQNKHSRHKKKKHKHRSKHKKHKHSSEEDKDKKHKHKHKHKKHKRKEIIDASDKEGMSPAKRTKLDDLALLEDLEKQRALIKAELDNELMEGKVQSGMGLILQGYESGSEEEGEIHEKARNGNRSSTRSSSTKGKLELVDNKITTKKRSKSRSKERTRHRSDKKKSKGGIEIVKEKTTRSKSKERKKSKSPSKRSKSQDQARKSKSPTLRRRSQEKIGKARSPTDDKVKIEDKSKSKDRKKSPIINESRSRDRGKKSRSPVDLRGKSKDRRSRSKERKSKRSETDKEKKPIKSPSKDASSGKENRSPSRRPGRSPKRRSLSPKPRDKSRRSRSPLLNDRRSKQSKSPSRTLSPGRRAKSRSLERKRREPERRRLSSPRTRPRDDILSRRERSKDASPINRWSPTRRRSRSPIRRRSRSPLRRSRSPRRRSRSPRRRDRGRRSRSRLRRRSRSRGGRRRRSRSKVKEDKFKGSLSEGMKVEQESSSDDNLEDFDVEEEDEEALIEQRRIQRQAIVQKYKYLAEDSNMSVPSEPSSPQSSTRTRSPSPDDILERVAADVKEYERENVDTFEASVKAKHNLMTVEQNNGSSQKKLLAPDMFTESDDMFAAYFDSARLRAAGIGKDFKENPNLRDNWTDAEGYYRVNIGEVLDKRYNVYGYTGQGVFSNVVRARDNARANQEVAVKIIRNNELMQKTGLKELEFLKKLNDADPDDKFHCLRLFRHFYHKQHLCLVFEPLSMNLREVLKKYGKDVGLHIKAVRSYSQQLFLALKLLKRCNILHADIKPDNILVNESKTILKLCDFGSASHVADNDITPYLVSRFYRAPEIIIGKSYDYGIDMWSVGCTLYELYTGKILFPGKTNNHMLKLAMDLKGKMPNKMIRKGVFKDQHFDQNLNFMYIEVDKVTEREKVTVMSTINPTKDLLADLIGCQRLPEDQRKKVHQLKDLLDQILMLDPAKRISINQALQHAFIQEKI
Procedure, shortened: as §1

CK1γ3(h) = biological target: T11, CK1γ3(h) (Homo sapiens, UniProt Q9Y6M4)
T11 construct: gene CSNK1G3
T11 sequence (Q9Y6M4 whole entry): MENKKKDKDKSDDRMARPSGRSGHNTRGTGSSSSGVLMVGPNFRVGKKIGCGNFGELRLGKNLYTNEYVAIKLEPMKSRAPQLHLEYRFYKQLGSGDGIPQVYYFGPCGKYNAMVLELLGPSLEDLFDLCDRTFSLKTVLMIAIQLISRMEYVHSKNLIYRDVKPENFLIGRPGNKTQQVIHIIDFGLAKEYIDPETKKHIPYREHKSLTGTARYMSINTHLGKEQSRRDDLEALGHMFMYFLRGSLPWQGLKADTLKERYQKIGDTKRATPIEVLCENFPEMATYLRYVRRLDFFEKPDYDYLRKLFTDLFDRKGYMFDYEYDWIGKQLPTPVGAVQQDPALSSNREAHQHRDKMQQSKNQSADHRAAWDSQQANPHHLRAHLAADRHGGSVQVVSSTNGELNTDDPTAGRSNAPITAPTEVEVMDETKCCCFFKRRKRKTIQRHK
Procedure, shortened: as §1

[1] = read-out: Residual activity (%) 5ay
[2] = read-out: Residual activity (%) Spautin-1 5aa
[3] = read-out: Residual activity (%) 5at
[4] = read-out: Residual activity (%) 5as

T1 sequence (Q05655 whole entry): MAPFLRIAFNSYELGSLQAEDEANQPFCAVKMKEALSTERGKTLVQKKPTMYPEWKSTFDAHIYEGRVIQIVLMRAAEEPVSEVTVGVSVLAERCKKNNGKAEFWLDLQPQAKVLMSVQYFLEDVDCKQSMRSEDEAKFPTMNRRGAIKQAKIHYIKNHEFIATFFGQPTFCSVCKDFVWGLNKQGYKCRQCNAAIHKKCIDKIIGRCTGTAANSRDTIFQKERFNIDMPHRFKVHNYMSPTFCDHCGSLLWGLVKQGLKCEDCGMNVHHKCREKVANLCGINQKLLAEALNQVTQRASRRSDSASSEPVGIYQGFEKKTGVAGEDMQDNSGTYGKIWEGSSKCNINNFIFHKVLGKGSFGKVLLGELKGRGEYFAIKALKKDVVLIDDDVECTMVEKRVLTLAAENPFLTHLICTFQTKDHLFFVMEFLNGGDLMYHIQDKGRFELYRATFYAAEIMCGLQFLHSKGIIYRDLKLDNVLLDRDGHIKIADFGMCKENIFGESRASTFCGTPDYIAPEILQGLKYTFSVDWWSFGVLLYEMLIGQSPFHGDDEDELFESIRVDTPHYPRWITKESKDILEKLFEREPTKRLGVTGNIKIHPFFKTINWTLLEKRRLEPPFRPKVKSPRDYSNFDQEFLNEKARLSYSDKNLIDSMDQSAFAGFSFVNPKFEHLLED

## COc1ccc2ncnc(Nc3cccc(F)c3)c2c1 [5ay, N-(3-Fluorophenyl)-6-Methoxy-4-Quinazolinamine]
PKCδ(h); [1]
  remaining activity at 10 µM: 75%
PKBα(h); [1]
  remaining activity at 10 µM: 88%
NEK3(h); [1]
  remaining activity at 10 µM: 87%
CaMKIIβ(h); [1]
  remaining activity at 10 µM: 72%
TGFBR1(h); [1]
  remaining activity at 10 µM: 94%
CaMKIγ(h); [1]
  remaining activity at 10 µM: 94%
CK1δ(h); [1]
  remaining activity at 10 µM: 86%
MSK2(h); [1]
  remaining activity at 10 µM: 88%
LIMK1(h); [1]
  remaining activity at 10 µM: 64%
IRAK1(h); [1]
  remaining activity at 10 µM: 87%
MRCKγ(h); [1]
  remaining activity at 10 µM: 92%
PRP4(h); [1]
  remaining activity at 10 µM: 100%
CK1γ3(h); [1]
  remaining activity at 10 µM: 83%

## Fc1ccc(CNc2ncnc3ccc(F)cc23)cc1 [5aa, 6-Fluoro-N-(4-fluorobenzyl)-4-Quinazolinamine]
PKCδ(h); [2]
  remaining activity at 10 µM: 81%
PKBα(h); [2]
  remaining activity at 10 µM: 86%
NEK3(h); [2]
  remaining activity at 10 µM: 71%
CaMKIIβ(h); [2]
  remaining activity at 10 µM: 81%
TGFBR1(h); [2]
  remaining activity at 10 µM: 87%
CaMKIγ(h); [2]
  remaining activity at 10 µM: 95%
CK1δ(h); [2]
  remaining activity at 10 µM: 74%
MSK2(h); [2]
  remaining activity at 10 µM: 91%
LIMK1(h); [2]
  remaining activity at 10 µM: 97%
IRAK1(h); [2]
  remaining activity at 10 µM: 114%
MRCKγ(h); [2]
  remaining activity at 10 µM: 105%
PRP4(h); [2]
  remaining activity at 10 µM: 104%
CK1γ3(h); [2]
  remaining activity at 10 µM: 81%

## Fc1ccc2ncnc(NCCc3ccc(Cl)cc3)c2c1 [5at, N-[2-(4-Chlorophenyl)Ethyl]-6-Fluoro-4-Quinazolinamine]
PKCδ(h); [3]
  remaining activity at 10 µM: 88%
PKBα(h); [3]
  remaining activity at 10 µM: 89%
NEK3(h); [3]
  remaining activity at 10 µM: 99%
CaMKIIβ(h); [3]
  remaining activity at 10 µM: 91%
TGFBR1(h); [3]
  remaining activity at 10 µM: 86%
CaMKIγ(h); [3]
  remaining activity at 10 µM: 87%
CK1δ(h); [3]
  remaining activity at 10 µM: 80%
MSK2(h); [3]
  remaining activity at 10 µM: 97%
LIMK1(h); [3]
  remaining activity at 10 µM: 72%
IRAK1(h); [3]
  remaining activity at 10 µM: 106%
MRCKγ(h); [3]
  remaining activity at 10 µM: 102%
PRP4(h); [3]
  remaining activity at 10 µM: 99%
CK1γ3(h); [3]
  remaining activity at 10 µM: 73%

## Fc1ccc(CCNc2ncnc3ccc(F)cc23)cc1 [5as, 6-Fluoro-N-[2-(4-Fluorophenyl)Ethyl]-4-Quinazolinamine]
PKCδ(h); [4]
  remaining activity at 10 µM: 97%
PKBα(h); [4]
  remaining activity at 10 µM: 98%
NEK3(h); [4]
  remaining activity at 10 µM: 80%
CaMKIIβ(h); [4]
  remaining activity at 10 µM: 91%
TGFBR1(h); [4]
  remaining activity at 10 µM: 97%
CaMKIγ(h); [4]
  remaining activity at 10 µM: 94%
CK1δ(h); [4]
  remaining activity at 10 µM: 80%
MSK2(h); [4]
  remaining activity at 10 µM: 96%
LIMK1(h); [4]
  remaining activity at 10 µM: 76%
IRAK1(h); [4]
  remaining activity at 10 µM: 87%
MRCKγ(h); [4]
  remaining activity at 10 µM: 98%
PRP4(h); [4]
  remaining activity at 10 µM: 105%
CK1γ3(h); [4]
  remaining activity at 10 µM: 87%

— article PMC7827406, “Structure–Activity Relationship (SAR) Study of Spautin-1 to Entail the Discovery of Novel NEK4 Inhibitors” (International Journal of Molecular Sciences, 2021)
